{"source": "patent US6368788B1", "about": "(priority 1987, dated 2002)", "key": {"Gingivitis": {"assay": "Gingivitis", "design": "species or system human", "details": "in vivo", "description": "Patients were treated for gingival disease by subcutaneous administration of L-Glu-L-Trp into the area of the gingiva. […] Approximately 160 patients were studied, 80 patients were treated with L-Glu-L-Trp and an equal number were treated using conventional therapy (control). […] Normalization of immunologic indices and coagulation in the L-Glu-L-Trp treated patients was correlated with favorable clinical outcome."}, "[1]": {"test_system": "lymphocytes of thymus, spleen, lymph nodes, peripheral blood", "assay": "Recovery of immune cells in irradiated guinea pigs (1 Gy)", "type": "in vivo", "details": "for E-RFC / E-RFC (% Normal) / EA-RFC / EA-RFC (% Normal) / EAC-RFC / EAC-RFC (% Normal) / Lymphocytes / Lymphocytes (% Normal) / Lymphocyte Blastogenesis with Con-A / Neutrophil Cationic Protein Levels: 0.01 mg/kg daily 5 days", "source_text": "X-irradiation an accepted experimental animal model for depressing cellular immune mechanisms operative in anti-bacterial, anti-viral, and anti-parasitic immunity. The levels of lymphocytes in thymus, spleen, and lymph node are decreased following sub-lethal radiation exposure, and the effects of L-Glu-L-Trp on recovery of immune function following radiation exposure were investigated in this model.\n142 guinea pigs were exposed to 1 Gy of X-irradiation and then treated with L-Glu-L-Trp at a dose of 0.01 mg/kg daily for 5 days starting two days after the irradiation. Immunologic indices were determined at 5, 10, and 20 days by preparing samples of immune cells from thymus, spleen, lymph nodes, and peripheral blood. Cell preparations were analyzed to determine the content of lymphocytes, E-RFC (i.e., T-lymphocytes), EA-RFC (“activated” T-lymphocytes), and EAC-RFC (i.e., B-lymphocytes). (The materials and methods used in these analyses are presented following EXAMPLE 38, below. The results obtained in these experiments are summarized in TABLE 55. […]\nNeutrophil cationic proteins were determined according to the method of V. E. Pigarevsky and Yu. A. Mazing (1981). Briefly, blood smears were air dried, stained for 20 minutes in a buffered methanol.-fast green solution, washed in distilled water, and stained for an additional 30 minutes with Azure 11. The percentage of cells containing green-colored granules was determined by microscopically counting a minimum of 100-200 of the cells in the smears, and cation protein concentration was recorded as the mean cytotoxic coefficient (MCC) according to a modified formula of Astold & Berg."}, "[2]": {"details": "lymph node, 5 days post irradiation (1 Gy)"}, "[3]": {"details": "lymph node, 10 days post irradiation (1 Gy)"}, "[4]": {"details": "lymph node, 20 days post irradiation (1 Gy)"}, "[5]": {"details": "peripheral blood, 5 days post-irradiation"}, "[6]": {"details": "peripheral blood, 10 days post-irradiation"}, "[7]": {"details": "peripheral blood, 20 days post-irradiation"}, "[8]": {"details": "splenic, 5 days post irradiation (1 Gy)"}, "[9]": {"details": "splenic, 10 days post irradiation (1 Gy)"}, "[10]": {"details": "splenic, 20 days post irradiation (1 Gy)"}, "[11]": {"details": "thymic, 5 days post irradiation (1 Gy)"}, "[12]": {"details": "thymic, 10 days post irradiation (1 Gy)"}, "[13]": {"details": "thymic, 20 days post irradiation (1 Gy)"}}, "note": "Marks after values point to notes of the source that are not given here.", "data": [{"substance": "L-Glu-L-Trp", "values": [{"measurement": "Clinical outcome", "setting": "Gingivitis", "result": "arrest of gingival disease"}, {"measurement": "Splenic B-lymphocytes (EAC-RFC), % of normal", "setting": "[1]; day 5", "result": 82, "unit": "%"}, {"measurement": "Thymic T-lymphocyte counts, % of normal", "setting": "[1]; day 5", "result": 67, "unit": "%"}, {"measurement": "Thymic lymphocytes, % of normal", "setting": "[1]; day 5", "result": 82, "unit": "%"}, {"measurement": "Splenic B-lymphocytes (EAC-RFC), % of normal", "setting": "[1]; day 10", "result": 100, "unit": "%"}, {"measurement": "Thymic T-lymphocyte counts, % of normal", "setting": "[1]; day 10", "result": 51, "unit": "%"}, {"measurement": "Thymic lymphocytes, % of normal", "setting": "[1]; day 10", "result": 56, "unit": "%"}, {"measurement": "Lymph node T-lymphocyte counts", "setting": "[1]; guinea pig, in vivo", "result": "significantly increased T-lymphocyte counts in lymph nodes on days 5, 10 and 20"}, {"measurement": "E-RFC", "setting": "[1]; [2]", "result": "40 +/− 4** × 10^9/L"}, {"measurement": "E-RFC (% Normal)", "setting": "[1]; [2]", "result": "(122%)"}, {"measurement": "EA-RFC", "setting": "[1]; [2]", "result": "20 +/− 3** × 10^9/L"}, {"measurement": "EA-RFC (% Normal)", "setting": "[1]; [2]", "result": "(111%)"}, {"measurement": "EAC-RFC", "setting": "[1]; [2]", "result": "25 +/− 2** × 10^9/L"}, {"measurement": "EAC-RFC (% Normal)", "setting": "[1]; [2]", "result": "(45%)"}, {"measurement": "Lymphocytes", "setting": "[1]; [2]", "result": "183 +/− 21* × 10^9/L"}, {"measurement": "Lymphocytes (% Normal)", "setting": "[1]; [2]", "result": "(73%)"}, {"measurement": "E-RFC", "setting": "[1]; [3]", "result": "29 +/− 3** × 10^9/L"}, {"measurement": "E-RFC (% Normal)", "setting": "[1]; [3]", "result": "(88%)"}, {"measurement": "EA-RFC", "setting": "[1]; [3]", "result": "17 +/− 2** × 10^9/L"}, {"measurement": "EA-RFC (% Normal)", "setting": "[1]; [3]", "result": "(94%)"}, {"measurement": "EAC-RFC", "setting": "[1]; [3]", "result": "12 +/− 1* × 10^9/L"}, {"measurement": "EAC-RFC (% Normal)", "setting": "[1]; [3]", "result": "(21%)"}, {"measurement": "Lymphocytes", "setting": "[1]; [3]", "result": "75 +/− 13* × 10^9/L"}, {"measurement": "Lymphocytes (% Normal)", "setting": "[1]; [3]", "result": "(30%)"}, {"measurement": "E-RFC", "setting": "[1]; [4]", "result": "30 +/− 2** × 10^9/L"}, {"measurement": "E-RFC (% Normal)", "setting": "[1]; [4]", "result": "(91%)"}, {"measurement": "EA-RFC", "setting": "[1]; [4]", "result": "25 +/− 4** × 10^9/L"}, {"measurement": "EA-RFC (% Normal)", "setting": "[1]; [4]", "result": "(139%)"}, {"measurement": "EAC-RFC", "setting": "[1]; [4]", "result": "9 +/− 1* × 10^9/L"}, {"measurement": "EAC-RFC (% Normal)", "setting": "[1]; [4]", "result": "(16%)"}, {"measurement": "Lymphocytes", "setting": "[1]; [4]", "result": "242 +/− 31** × 10^9/L"}, {"measurement": "Lymphocytes (% Normal)", "setting": "[1]; [4]", "result": "(96%)"}, {"measurement": "Con-A responsiveness and neutrophil cationic proteins", "setting": "[1]; peripheral blood", "result": "statistically significant decrease in Con-A responsiveness and increased levels of neutrophil cationic proteins"}, {"measurement": "Lymphocyte Blastogenesis with Con-A", "setting": "[1]; [5]", "result": "44 +/− 4** %"}, {"measurement": "Neutrophil Cationic Protein Levels", "setting": "[1]; [5]", "result": "1.42 +/− 0.15*"}, {"measurement": "Lymphocyte Blastogenesis with Con-A", "setting": "[1]; [6]", "result": "67 +/− 5** %"}, {"measurement": "Neutrophil Cationic Protein Levels", "setting": "[1]; [6]", "result": "1.54 +/− 0.09**"}, {"measurement": "Lymphocyte Blastogenesis with Con-A", "setting": "[1]; [7]", "result": "49 +/− 2** %"}, {"measurement": "Neutrophil Cationic Protein Levels", "setting": "[1]; [7]", "result": "1.63 +/− 0.11**"}, {"measurement": "E-RFC", "setting": "[1]; [8]", "result": "48 +/− 4** × 10^9/L"}, {"measurement": "E-RFC (% Normal)", "setting": "[1]; [8]", "result": "(120%)"}, {"measurement": "EA-RFC", "setting": "[1]; [8]", "result": "22 +/− 4** × 10^9/L"}, {"measurement": "EA-RFC (% Normal)", "setting": "[1]; [8]", "result": "(85%)"}, {"measurement": "EAC-RFC", "setting": "[1]; [8]", "result": "60 +/− 5** × 10^9/L"}, {"measurement": "EAC-RFC (% Normal)", "setting": "[1]; [8]", "result": "(82%)"}, {"measurement": "Lymphocytes", "setting": "[1]; [8]", "result": "378 +/− 36** × 10^9/L"}, {"measurement": "Lymphocytes (% Normal)", "setting": "[1]; [8]", "result": "(92%)"}, {"measurement": "E-RFC", "setting": "[1]; [9]", "result": "29 +/− 3* × 10^9/L"}, {"measurement": "E-RFC (% Normal)", "setting": "[1]; [9]", "result": "(73%)"}, {"measurement": "EA-RFC", "setting": "[1]; [9]", "result": "15 +/− 2* × 10^9/L"}, {"measurement": "EA-RFC (% Normal)", "setting": "[1]; [9]", "result": "(58%)"}, {"measurement": "EAC-RFC", "setting": "[1]; [9]", "result": "73 +/− 5** × 10^9/L"}, {"measurement": "EAC-RFC (% Normal)", "setting": "[1]; [9]", "result": "(100%)"}, {"measurement": "Lymphocytes", "setting": "[1]; [9]", "result": "147 +/− 18** × 10^9/L"}, {"measurement": "Lymphocytes (% Normal)", "setting": "[1]; [9]", "result": "(36%)"}, {"measurement": "E-RFC", "setting": "[1]; [10]", "result": "45 +/− 4** × 10^9/L"}, {"measurement": "E-RFC (% Normal)", "setting": "[1]; [10]", "result": "(113%)"}, {"measurement": "EA-RFC", "setting": "[1]; [10]", "result": "29 +/− 4** × 10^9/L"}, {"measurement": "EA-RFC (% Normal)", "setting": "[1]; [10]", "result": "(112%)"}, {"measurement": "EAC-RFC", "setting": "[1]; [10]", "result": "82 +/− 9 × 10^9/L"}, {"measurement": "EAC-RFC (% Normal)", "setting": "[1]; [10]", "result": "(112%)"}, {"measurement": "Lymphocytes", "setting": "[1]; [10]", "result": "260 +/− 32** × 10^9/L"}, {"measurement": "Lymphocytes (% Normal)", "setting": "[1]; [10]", "result": "(64%)"}, {"measurement": "E-RFC", "setting": "[1]; [11]", "result": "252 +/− 26** × 10^9/L"}, {"measurement": "E-RFC (% Normal)", "setting": "[1]; [11]", "result": "(67%)"}, {"measurement": "EA-RFC", "setting": "[1]; [11]", "result": "150 +/− 16** × 10^9/L"}, {"measurement": "EA-RFC (% Normal)", "setting": "[1]; [11]", "result": "(52%)"}, {"measurement": "EAC-RFC", "setting": "[1]; [11]", "result": "4 +/− 1** × 10^9/L"}, {"measurement": "EAC-RFC (% Normal)", "setting": "[1]; [11]", "result": "(80%)"}, {"measurement": "Lymphocytes", "setting": "[1]; [11]", "result": "395 +/− 27** × 10^9/L"}, {"measurement": "Lymphocytes (% Normal)", "setting": "[1]; [11]", "result": "(82%)"}, {"measurement": "E-RFC", "setting": "[1]; [12]", "result": "195 +/− 21** × 10^9/L"}, {"measurement": "E-RFC (% Normal)", "setting": "[1]; [12]", "result": "(51%)"}, {"measurement": "EA-RFC", "setting": "[1]; [12]", "result": "143 +/− 16** × 10^9/L"}, {"measurement": "EA-RFC (% Normal)", "setting": "[1]; [12]", "result": "(49%)"}, {"measurement": "EAC-RFC", "setting": "[1]; [12]", "result": "3 +/− 0.4* × 10^9/L"}, {"measurement": "EAC-RFC (% Normal)", "setting": "[1]; [12]", "result": "(60%)"}, {"measurement": "Lymphocytes", "setting": "[1]; [12]", "result": "276 +/− 26** × 10^9/L"}, {"measurement": "Lymphocytes (% Normal)", "setting": "[1]; [12]", "result": "(57%)"}, {"measurement": "E-RFC", "setting": "[1]; [13]", "result": "343 +/− 30** × 10^9/L"}, {"measurement": "E-RFC (% Normal)", "setting": "[1]; [13]", "result": "(91%)"}, {"measurement": "EA-RFC", "setting": "[1]; [13]", "result": "243 +/− 28** × 10^9/L"}, {"measurement": "EA-RFC (% Normal)", "setting": "[1]; [13]", "result": "(84%)"}, {"measurement": "EAC-RFC", "setting": "[1]; [13]", "result": "4 +/− 0.4 × 10^9/L"}, {"measurement": "EAC-RFC (% Normal)", "setting": "[1]; [13]", "result": "(80%)"}, {"measurement": "Lymphocytes", "setting": "[1]; [13]", "result": "423 +/− 40** × 10^9/L"}, {"measurement": "Lymphocytes (% Normal)", "setting": "[1]; [13]", "result": "(88%)"}]}]}
